# Measured values reported in ChEMBL document CHEMBL1152719, “Non-urea functionality as the primary pharmacophore in soluble epoxide hydrolase inhibitors” (Bioorg Med Chem Lett, 2009).
# pIC50: −log10 of the molar value.
# Molecular target: T1, Bifunctional epoxide hydrolase 2 (Homo sapiens, UniProt P34913)
# T1 sequence (P34913 whole entry): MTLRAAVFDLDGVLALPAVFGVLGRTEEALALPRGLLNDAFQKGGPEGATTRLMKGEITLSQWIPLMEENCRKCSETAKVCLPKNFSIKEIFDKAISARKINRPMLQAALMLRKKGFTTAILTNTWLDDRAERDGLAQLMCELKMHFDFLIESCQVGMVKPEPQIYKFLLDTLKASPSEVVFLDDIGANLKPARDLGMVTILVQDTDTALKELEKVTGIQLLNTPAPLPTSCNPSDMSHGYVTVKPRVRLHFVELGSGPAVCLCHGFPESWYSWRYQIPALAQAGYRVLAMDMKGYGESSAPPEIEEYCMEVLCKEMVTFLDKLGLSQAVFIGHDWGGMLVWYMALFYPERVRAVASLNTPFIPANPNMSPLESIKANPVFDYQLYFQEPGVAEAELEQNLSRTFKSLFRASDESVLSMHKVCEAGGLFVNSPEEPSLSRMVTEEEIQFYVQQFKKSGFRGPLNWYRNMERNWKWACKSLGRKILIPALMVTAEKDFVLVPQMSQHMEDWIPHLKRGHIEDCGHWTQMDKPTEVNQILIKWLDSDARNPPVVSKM
# Test: Inhibition of soluble epoxide hydrolase by fluorescence assay
row,Compound,pIC50
1,O=C(CC1CCCCC1)Nc1cccc(OCCCN2CCOCC2)c1,7.55
2,O=C(Nc1cccc(OCCCN2CCOCC2)c1)C12CC3CC(CC(C3)C1)C2,7.06
3,O=C(CC12CC3CC(CC(C3)C1)C2)Nc1cccc(OCCCN2CCOCC2)c1,8.60
4,O=C(Nc1cccc(OCCCN2CCOCC2)c1)C1CCCCC1,6.41
5,O=C(Nc1ccc(C(F)(F)F)cc1)Nc1cccc(OCCCN2CCOCC2)c1,8.92
6,O=C(Nc1ccc(OC(F)(F)F)cc1)Nc1cccc(OCCCN2CCOCC2)c1,8.09
7,O=C(Nc1cccc(OCCCN2CCOCC2)c1)NC12CC3CC(CC(C3)C1)C2,9.10
8,O=C(Nc1cccc(OCCCN2CCOCC2)c1)NC1CCCCC1,8.41
9,O=C(Cc1ccc(C(F)(F)F)cc1)Nc1cccc(OCCCN2CCOCC2)c1,7.26
10,S=C(Nc1cccc(OCCCN2CCOCC2)c1)NC12CC3CC(CC(C3)C1)C2,7.66
11,O=C(Nc1cccc(OCCCN2CCOCC2)c1)C(O)CCC12CC3CC(CC(C3)C1)C2 (centres undefined),6.28
12,O=C(Nc1cccc(OCCCN2CCOCC2)c1)C(=O)C12CC3CC(CC(C3)C1)C2,< 5.70
13,O=C(CCC12CC3CC(CC(C3)C1)C2)C(=O)Nc1cccc(OCCCN2CCOCC2)c1,7.32
14,O=S(=O)(Nc1cccc(OCCCN2CCOCC2)c1)NC12CC3CC(CC(C3)C1)C2,5.44
15,O=C(Nc1cccc(OCCCN2CCOCC2)c1)C(O)C12CC3CC(CC(C3)C1)C2 (centres undefined),< 5.70
16,O=C(Nc1cccc(OCCCN2CCOCC2)c1)C(O)CC12CC3CC(CC(C3)C1)C2 (centres undefined),7.64
17,O=C(Nc1cccc(OCCCN2CCOCC2)c1)c1ccc(C(F)(F)F)cc1,7.03
18,O=C(CC12CC3CC(CC(C3)C1)C2)C(=O)Nc1ccc(OCc2ccccc2)cc1,5.95
19,O=C(CCC12CC3CC(CC(C3)C1)C2)C(=O)NCCc1ccc(OCc2ccccc2)cc1,6.16
20,O=C(NCCc1ccc(OCc2ccccc2)cc1)NCCC12CC3CC(CC(C3)C1)C2,7.82
21,O=C(NCCc1ccc(OCc2ccccc2)cc1)C(O)CC12CC3CC(CC(C3)C1)C2 (centres undefined),6.73
22,O=C(NCCc1ccc(OCc2ccccc2)cc1)C(O)CCC12CC3CC(CC(C3)C1)C2 (centres undefined),7.96
23,O=C(Nc1ccc(OCc2ccccc2)cc1)C(O)C12CC3CC(CC(C3)C1)C2 (centres undefined),6.51
24,O=C(Nc1ccc(OCc2ccccc2)cc1)C(O)CC12CC3CC(CC(C3)C1)C2 (centres undefined),6.57
25,O=C(CC12CC3CC(CC(C3)C1)C2)C(=O)NCCc1ccc(OCc2ccccc2)cc1,5.81
26,O=C(Nc1ccc(OCc2ccccc2)cc1)C(=O)C12CC3CC(CC(C3)C1)C2,6.68
27,O=S(=O)(Nc1cccc(OCCCN2CCOCC2)c1)c1ccc(C(F)(F)F)cc1,4.82
28,O=C(CNC12CC3CC(CC(C3)C1)C2)Nc1cccc(OCCCN2CCOCC2)c1,6.96
29,O=C(CC12CC3CC(CC(C3)C1)C2)C(=O)Nc1cccc(OCCCN2CCOCC2)c1,7.31
